target: glucocorticoid receptor (GR) recombinant ligand binding domain (LBD) (Homo sapiens (Human), UniProt P04150); test: GR binding fluorescence polarisation (FP) assay; conditions: displacement of fluorescently tagged ligand
Protocol: Binding of test compounds to the glucocorticoid receptor (GR) is determined using a fluorescence polarisation (FP) assay utilising a recombinant ligand binding domain (LBD) of GR. The test compounds are assessed by their ability to displace a fluorescently tagged ligand and detection of the resulting decrease in fluorescence polarisation.

glucocorticoid receptor (GR) recombinant ligand binding domain (LBD), sequence (P04150 524-758): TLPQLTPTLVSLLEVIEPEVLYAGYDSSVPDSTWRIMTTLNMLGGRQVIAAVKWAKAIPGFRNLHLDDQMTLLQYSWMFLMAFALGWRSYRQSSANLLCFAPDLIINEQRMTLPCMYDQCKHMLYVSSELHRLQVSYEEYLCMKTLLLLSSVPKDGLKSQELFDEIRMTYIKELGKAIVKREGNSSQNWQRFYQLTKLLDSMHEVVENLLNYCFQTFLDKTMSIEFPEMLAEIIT

IC50 | SMILES
238 nM | CCCn1cc(S(=O)(=O)N2CCN(c3cnc4c(cnn4-c4ccc(F)cc4)c3)CC23CC3)cn1 [Example 71]
1130 nM | CCCn1cc(S(=O)(=O)N2CCN(c3ccc4c(cnn4-c4ccc(F)cc4)c3)CC2(C)C)cn1 [Example 46]
546 nM | C[C@@H]1CN(c2ccc3c(cnn3-c3ccc(F)cc3)c2)CCN1S(=O)(=O)c1ccc(F)c(F)c1 [Example 40]
52 nM | Cc1cc2c(cnn2-c2ccc(F)cc2)cc1N1CC[C@@H](N(C)S(C)(=O)=O)C1 [Example 113]
8220 nM | CCCn1cc(S(=O)(=O)N2CCN(c3ccc4c(cnn4-c4ccc(F)cc4)c3C)C[C@H]2C)cn1 [Example 49]
7230 nM | Cc1cc2c(cnn2-c2ccc(F)cc2)cc1N1CCC2(CCCN2S(C)(=O)=O)CC1 [Example 88]
700 nM | COC(=O)C1CN(c2ccc3c(cnn3-c3ccc(F)cc3)c2)CCN1S(=O)(=O)c1cnn(CC2CC2)c1 (centres unmarked) [Example 52]
270 nM | CCCS(=O)(=O)N1CCN(c2ccc3c(cnn3-c3ccc(F)cc3)c2)C[C@H]1C [Example 104, (R)-1-(4-fluorophenyl)-5-(3-methyl-4-(propylsulfonyl)piperazin-1-yl)-1H-indazole]
208 nM | CCCn1cc(S(=O)(=O)N(C)[C@H]2CCCN(c3cc4cnn(-c5ccc(F)cc5)c4cc3C)C2)cn1 [Example 125]
21 nM | CCCn1cc(S(=O)(=O)N2C[C@H](C)N(c3ccc4c(cnn4-c4ccc(F)cc4)c3)C[C@H]2C)cn1 [Example 55]
142 nM | Cc1nn(C2CCCC2)cc1S(=O)(=O)N1CCN(c2ccc3c(cnn3-c3ccc(F)cc3)c2)C[C@H]1C [Example 54]
590 nM | CCCn1cc(S(=O)(=O)N(C)C2CCCN(c3cc4cnn(-c5ccc(F)cc5)c4cc3C)C2)cn1 (centres unmarked) [Example 128]
325 nM | CCCn1cc(S(=O)(=O)N2CCN(c3cc4cnn(-c5ccc(OC)cc5)c4cc3C)C[C@H]2C)cn1 [Example 75]
21 nM | Cc1cc2c(cnn2-c2ccc(F)cc2)cc1N1CC[C@@H](N(C)S(=O)(=O)c2cnn(C)c2)C1 [Example 115]
3 nM | Cc1cc2c(cnn2-c2ccc(F)cc2)cc1N1CC[C@H](NS(=O)(=O)c2cnn(C)c2)C1 [Example 111]
390 nM | Cc1cc2c(cnn2-c2ccc(F)cc2)cc1C1(COCc2ccccc2)CCN(S(=O)(=O)c2cnn(C)c2)C1 (centres unmarked) [Example 341, 5-(3-((benzyloxy)methyl)-1-((1-methyl-1H-pyrazol-4-yl)sulfonyl)pyrrolidin-3-yl)-1-(4-fluorophenyl)-6-methyl-1H-indazole]
48 nM | Cc1cc2c(cnn2-c2ccc(F)cc2)cc1N1CC[C@@H](NS(C)(=O)=O)C1 [Example 109]
1040 nM | CCCn1cc(S(=O)(=O)N2CCN(c3cc4cnn(-c5ccc(OC)nc5)c4cc3C)C[C@H]2C)cn1 [Example 77]
320 nM | CS(=O)(=O)N[C@H]1CCN(c2ccc3c(cnn3-c3ccc(F)cc3)c2)C1 [Example 105]
190 nM | Cc1cc2c(cnn2-c2ccc(F)cc2)cc1N1CCCC(N(C)S(C)(=O)=O)C1 (centres unmarked) [Example 126]
884 nM | CCCn1cc(S(=O)(=O)N2CCC(C(=O)OCC)(c3ccc4c(cnn4-c4ccc(F)cc4)c3)CC2)cn1 [Example 21, Ethyl 4-(1-(4-fluorophenyl)-1H-indazol-5-yl)-1-((1-propyl-1H-pyrazol-4-yl)sulfonyl)piperidine-4-carboxylate]

IC50 | SMILES
527 nM | CCCn1cc(S(=O)(=O)N2CC[C@@H](c3ccc4c(cnn4-c4ccc(F)cc4)c3)C[C@H]2C)cn1 [Example 9, 1-(4-fluorophenyl)-5-((2R,4R)-2-methyl-1-((1-propyl-1H-pyrazol-4-yl)sulfonyl)piperidin-4-yl)-1H-indazole]
612 nM | Cc1cc2c(cnn2-c2ccc(F)cc2)cc1N1CCC2(CCN(S(C)(=O)=O)CC2)C1 [Example 95]
72 nM | Cc1cc2c(cnn2-c2ccc(F)cc2)cc1N1CCC(N(C)S(C)(=O)=O)CC1 [Example 116]
236 nM | CCCn1cc(S(=O)(=O)N2CC[C@@H](c3cc4cnn(-c5ccc(F)cc5)c4cc3C)C[C@H]2C)cn1 [Example 12, 1-(4-fluorophenyl)-6-methyl-5-((2R,4R)-2-methyl-1-((1-propyl-1H-pyrazol-4-yl)sulfonyl)piperidin-4-yl)-1H-indazole]
749 nM | CC(=O)N1CCN(c2ccc3c(cnn3-c3ccc(F)cc3)c2)C[C@H]1Cc1ccccc1 [Example 98]
218 nM | CCCn1cc(S(=O)(=O)N2CC=C(c3cc4cnn(-c5ccc(F)cc5)c4cc3C)CC2)cn1 [Example 139]
1100 nM | Cn1cc(S(=O)(=O)N2CCN(c3ccc4c(cnn4-c4ccc(F)cc4)c3)[C@H](Cc3ccccc3)C2)cn1 [Example 34]
1410 nM | CS(=O)(=O)N1C[C@@H]2C[C@H]1CN2c1ccc2c(cnn2-c2ccc(F)cc2)c1 [Example 47]
429 nM | CCCn1cc(S(=O)(=O)N2CCN(c3ccc4c(cnn4-c4ccc(F)cc4)c3)CC23CCC3)cn1 [Example 66]
249 nM | CCCn1cc(S(=O)(=O)N2CCN(c3ccc4c(cnn4-c4ccc(F)cc4)c3)C[C@H]2C)c(C)n1 [Example 57]
357 nM | O=S(=O)(c1cnn(CC2CC2)c1)N1CCN(c2ccc3c(cnn3-c3ccc(F)cc3)c2)C[C@H]1CO [Example 14, (S)-(1-((1-(cyclopropylmethyl)-1H-pyrazol-4-yl)sulfonyl)-4-(1-(4-fluorophenyl)-1H-indazol-5-yl)piperazin-2-yl)methanol]
66 nM | CCCn1cc(S(=O)(=O)N2CCN(c3cc4nnn(-c5ccc(F)cc5)c4cc3C)CC23CC3)cn1 [Example 74]
1940 nM | C[C@@H]1CN(C(=O)c2ccccc2)CCN1c1ccc2c(cnn2-c2ccc(F)cc2)c1 [Example 2, (R)-(4-(1-(4-fluorophenyl)-1H-indazol-5-yl)-3-methylpiperazin-1-yl)(phenyl)methanone]
244 nM | C[C@@H]1CN(c2ccc3c(cnn3-c3ccc(F)cc3)c2)CCN1S(=O)(=O)c1cnn(C2CCOCC2)c1 [Example 53]
83 nM | CCCn1cc(S(=O)(=O)N2CCN(c3cc4cnn(-c5ccc(F)c(F)c5)c4cc3C)C[C@H]2C)cn1 [Example 76]
304 nM | Cc1cc2c(cnn2-c2ccc(F)cc2)cc1N1CC[C@H](N(C)S(=O)(=O)c2cnn(C)c2)C1 [Example 114]
937 nM | Cn1cc(S(=O)(=O)N2CCN(c3ccc4c(cnn4-c4ccc(F)cc4)c3)C[C@H]2Cc2ccccc2)cn1 [Example 41]
562 nM | CC1(C)CN(c2ccc3c(cnn3-c3ccc(F)cc3)c2)CCN1S(C)(=O)=O [Example 45]
3380 nM | CS(=O)(=O)N1CCC(c2ccc3c(cnn3-c3ccc(F)cc3)c2)CC1 [Example 134]
473 nM | CCCn1cc(S(=O)(=O)N2CCC(c3ccc4c(cnn4-c4ccc(F)cc4)c3)CC2)cn1 [Example 135]
258 nM | CCCn1cc(S(=O)(=O)N2CC=C(c3cc4cnn(-c5ccc(F)cc5)c4cc3C)C[C@H]2C)cn1 [Example 11, (R)-1-(4-fluorophenyl)-6-methyl-5-(2-methyl-1-((1-propyl-1H-pyrazol-4-yl)sulfonyl)-1,2,3,6-tetrahydropyridin-4-yl)-1H-indazole]

SMILES | IC50
CCCn1cc(S(=O)(=O)N2C3CCC2CN(c2cc4cnn(-c5ccc(F)cc5)c4cc2C)C3)cn1 [Example 83] | 515 nM
CS(=O)(=O)N1CC2CC(C1)N2c1ccc2c(cnn2-c2ccc(F)cc2)c1 [Example 48] | 4050 nM

Reference: patent US11787780B2 (CORCEPT THERAPEUTICS INCORPORATED, priority 2020, dated 2023)
